Consider 30 compounds from patent US10233173B2, “Substituted 1,2,3-triazoles as NR2B-selective NMDA modulators” (JANSSEN PHARMACEUTICA NV, priority 2016, dated 2019).

The target of the test is human GluN1/GluN2B NMDA receptors (Homo sapiens, UniProt Q05586+Q13224). Put plainly: Cell-based calcium flux (FLIPR) assay on cloned human NR1/NR2B ion channels expressed in mammalian cells. The note with it: standard assay; human GluN1/GluN2B, calcium flux (FLIPR), glutamate ~EC80. The procedure, abridged: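 Calcium influx followed by FLIPR fluorescence after 5 min compound exposure and a further 5 min co-agonist challenge: 10 μM glycine with glutamate at ~EC80 (standard) or EC40 (HTS).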
Sequence of human GluN1/GluN2B NMDA receptors (Q13224 27-1484, other chains not shown): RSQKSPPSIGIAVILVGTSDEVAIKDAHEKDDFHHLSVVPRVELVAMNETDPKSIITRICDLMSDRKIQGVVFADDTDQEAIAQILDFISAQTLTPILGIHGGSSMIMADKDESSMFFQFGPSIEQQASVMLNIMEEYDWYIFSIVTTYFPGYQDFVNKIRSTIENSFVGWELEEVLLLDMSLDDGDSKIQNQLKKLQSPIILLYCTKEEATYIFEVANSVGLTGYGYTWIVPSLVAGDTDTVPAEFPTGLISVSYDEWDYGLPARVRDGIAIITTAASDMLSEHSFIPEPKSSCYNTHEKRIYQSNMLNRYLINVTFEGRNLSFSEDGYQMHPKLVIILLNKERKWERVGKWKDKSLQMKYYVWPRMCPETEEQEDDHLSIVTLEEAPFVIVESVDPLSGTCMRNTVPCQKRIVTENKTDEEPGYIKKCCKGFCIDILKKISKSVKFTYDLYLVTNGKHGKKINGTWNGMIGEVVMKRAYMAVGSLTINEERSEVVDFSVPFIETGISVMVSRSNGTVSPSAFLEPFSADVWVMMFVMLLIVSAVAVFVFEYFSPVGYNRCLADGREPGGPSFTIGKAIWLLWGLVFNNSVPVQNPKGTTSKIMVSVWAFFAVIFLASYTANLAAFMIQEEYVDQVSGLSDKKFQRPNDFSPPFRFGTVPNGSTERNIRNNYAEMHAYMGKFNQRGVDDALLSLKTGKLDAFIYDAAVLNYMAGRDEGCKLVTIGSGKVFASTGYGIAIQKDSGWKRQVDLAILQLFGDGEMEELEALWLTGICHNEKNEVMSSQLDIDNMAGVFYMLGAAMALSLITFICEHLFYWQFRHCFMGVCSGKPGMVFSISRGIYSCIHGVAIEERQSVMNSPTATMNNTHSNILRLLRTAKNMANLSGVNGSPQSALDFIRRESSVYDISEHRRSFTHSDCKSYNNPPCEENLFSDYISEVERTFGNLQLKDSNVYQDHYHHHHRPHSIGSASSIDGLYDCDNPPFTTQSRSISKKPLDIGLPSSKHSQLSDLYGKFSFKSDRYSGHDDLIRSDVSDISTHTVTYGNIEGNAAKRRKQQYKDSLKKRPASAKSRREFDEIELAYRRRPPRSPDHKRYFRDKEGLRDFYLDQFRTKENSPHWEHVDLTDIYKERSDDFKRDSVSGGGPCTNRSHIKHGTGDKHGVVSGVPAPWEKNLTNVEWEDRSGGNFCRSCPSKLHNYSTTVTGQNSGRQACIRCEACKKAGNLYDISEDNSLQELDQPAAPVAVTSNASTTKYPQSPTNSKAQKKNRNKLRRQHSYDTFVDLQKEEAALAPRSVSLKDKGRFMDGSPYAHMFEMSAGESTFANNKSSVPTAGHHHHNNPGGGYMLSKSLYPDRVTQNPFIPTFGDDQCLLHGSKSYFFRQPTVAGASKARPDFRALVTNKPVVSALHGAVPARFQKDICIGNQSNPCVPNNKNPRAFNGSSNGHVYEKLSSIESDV

With `Fc1ccc(-n2cc(COc3ncc(Cl)cn3)nn2)cc1C(F)(F)F` [Example 74, 5-Chloro-2-[[1-[4-fluoro-3-(trifluoromethyl)phenyl]triazol-4-yl]methoxy]pyrimidine], the IC50 was determined as 0.016 µM.

In the case of `CC(C)c1cnc(OCc2cn(-c3ccc(F)c(C(F)(F)F)c3)nn2)nc1` [Example 75, 2-[[1-[4-Fluoro-3-(trifluoromethyl)phenyl]triazol-4-yl]methoxy]-5-isopropyl-pyrimidine], the IC50 stood at 0.026 µM.

In the case of `Fc1ccc(-n2cc(COc3ncc(C(F)(F)F)cn3)nn2)cc1C(F)(F)F` [Example 76, 2-[[1-[4-Fluoro-3-(trifluoromethyl)phenyl]triazol-4-yl]methoxy]-5-(trifluoromethyl)pyrimidine], the IC50 stood at 0.035 µM.

`Cc1cnc(OCc2cn(-c3ccc(F)c(C(C)(F)F)c3)nn2)nc1` [Example 77, 2-[[1-[3-(1,1-Difluoroethyl)-4-fluoro-phenyl]triazol-4-yl]methoxy]-5-methyl-pyrimidine]: the IC50 was determined as 0.004 µM.

For `CC(F)(F)c1cc(-n2cc(COc3ncccn3)nn2)ccc1F` [Example 78, 2-[[1-[3-(1,1-Difluoroethyl)-4-fluoro-phenyl]triazol-4-yl]methoxy]pyrimidine], the IC50 came to 0.06 µM.

Turning to `Cc1ccnc(OCc2cn(-c3ccc(F)c(C(C)(F)F)c3)nn2)n1` [Example 79, 2-[[1-[3-(1,1-Difluoroethyl)-4-fluoro-phenyl]triazol-4-yl]methoxy]-4-methyl-pyrimidine], the IC50 was determined as 0.007 µM.

In the case of `CC(F)(F)c1cc(-n2cc(COc3ncc(F)cn3)nn2)ccc1F` [Example 80, 2-[[1-[3-(1,1-Difluoroethyl)-4-fluoro-phenyl]triazol-4-yl]methoxy]-5-fluoro-pyrimidine], the IC50 was determined as 0.032 µM.

In the case of `Cc1cnc(OCc2cn(-c3ccc(F)c(C(F)(F)F)c3)nn2)nc1` [Example 81, 2-[[1-[4-Fluoro-3-(trifluoromethyl)phenyl]triazol-4-yl]methoxy]-5-methyl-pyrimidine], the IC50 was found to be 0.003 µM.

On to `Fc1ccc(-n2cc(COc3ncccn3)nn2)cc1C(F)(F)F` [Example 82, 2-[[1-[4-Fluoro-3-(trifluoromethyl)phenyl]triazol-4-yl]methoxy]pyrimidine], for which the IC50 was determined as 0.126 µM.

Regarding `Cc1ccnc(OCc2cn(-c3ccc(F)c(C(F)(F)F)c3)nn2)n1` [Example 83, 2-[[1-[4-Fluoro-3-(trifluoromethyl)phenyl]triazol-4-yl]methoxy]-4-methyl-pyrimidine], the IC50 is 0.02 µM.

On to `Fc1cnc(OCc2cn(-c3ccc(F)c(C(F)(F)F)c3)nn2)nc1` [Example 84, 5-Fuoro-2-[[1-[4-fluoro-3-(trifluoromethyl)phenyl]triazol-4-yl]methoxy]pyrimidine], for which the IC50 is 0.072 µM.

Take `Cc1cnc(OCc2cn(-c3ccc(F)c(Br)c3)nn2)nc1C` [Example 85, 2-[[1-(3-Bromo-4-fluoro-phenyl)triazol-4-yl]methoxy]-4,5-dimethyl-pyrimidine]: the IC50 turned out to be 0.003 µM.

As to `Cc1cnc(OCc2cn(-c3ccc(Cl)c(C(F)F)c3)nn2)nc1C` [Example 86, 2-[[1-[4-Chloro-3-(difluoromethyl)phenyl]triazol-4-yl]methoxy]-4,5-dimethyl-pyrimidine], the IC50 turned out to be 0.004 µM.

For `COc1cnc(OCc2cn(-c3ccc(Cl)c(OC)c3)nn2)nc1` [Example 87], the IC50 came to 0.012 µM.

For the compound `COc1cc(-n2cc(COc3ncc(C)cn3)nn2)ccc1Cl` [Example 88, 2-[[1-(4-Chloro-3-methoxy-phenyl)triazol-4-yl]methoxy]-5-methyl-pyrimidine], the IC50 amounted to 0.019 µM.

Regarding `Cc1cnc(OCc2cn(-c3cccc(C(F)F)c3)nn2)nc1` [Example 89, 2-[[1-[3-(Difluoromethyl)phenyl]triazol-4-yl]methoxy]-5-methyl-pyrimidine], the IC50 stood at 0.011 µM.

On to `COc1cnc(OCc2cn(-c3cccc(C(F)F)c3)nn2)nc1` [Example 90, 2-[[1-[3-(Difluoromethyl)phenyl]triazol-4-yl]methoxy]-5-methoxy-pyrimidine], for which the IC50 is 0.012 µM.

For `CCc1cnc(OCc2cn(-c3cccc(C(F)F)c3)nn2)nc1` [Example 91, 2-[[1-[3-(Difluoromethyl)phenyl]triazol-4-yl]methoxy]-5-ethyl-pyrimidine], the IC50 was found to be 0.004 µM.

For the compound `FC(F)c1cccc(-n2cc(COc3ncc(Cl)cn3)nn2)c1` [Example 92, 5-Chloro-2-[[1-[3-(difluoromethyl)phenyl]triazol-4-yl]methoxy]pyrimidine], the IC50 is 0.019 µM.

Consider `FC(F)c1cccc(-n2cc(COc3ncccn3)nn2)c1` [Example 93, 2-[[1-[3-(Difluoromethyl)phenyl]triazol-4-yl]methoxy]pyrimidine], for which the IC50 was determined as 0.493 µM.

On to `Cc1cnc(OCc2cn(-c3ccc(Br)c(C)n3)nn2)nc1` [Example 94, 2-[[1-(5-Bromo-6-methyl-2-pyridyl)triazol-4-yl]methoxy]-5-methyl-pyrimidine], for which the IC50 worked out at 2.91 µM.

In the case of `Fc1cnc(OCc2cn(-c3ccc(Cl)c(OC(F)F)c3)nn2)nc1` [Example 95, 2-[[1-[4-Chloro-3-(difluoromethoxy)phenyl]triazol-4-yl]methoxy]-5-fluoro-pyrimidine], the IC50 worked out at 0.023 µM.

In the case of `FC(F)Oc1cc(-n2cc(COc3ncc(C(F)F)cn3)nn2)ccc1Cl` [Example 96, 2-[[1-[4-Chloro-3-(difluoromethoxy)phenyl]triazol-4-yl]methoxy]-5-(difluoromethyl)pyrimidine], the IC50 came to 0.008 µM.

Turning to `FC(F)Oc1cc(-n2cc(CNc3ncco3)nn2)ccc1Cl` [Example 97, N-[[1-[4-Chloro-3-(difluoromethoxy)phenyl]triazol-4-yl]methyl]oxazol-2-amine], the IC50 was 0.106 µM.

Regarding `FC(F)Oc1cc(-n2cc(CNc3ncccn3)nn2)ccc1Cl` [Example 98, N-[[1-[4-Chloro-3-(difluoromethoxy)phenyl]triazol-4-yl]methyl]pyrimidin-2-amine], the IC50 was 0.331 µM.

Regarding `Cn1cc(NCc2cn(-c3ccc(F)c(C(F)F)c3)nn2)cn1` [Example 99, N-[[1-[3-(Difluoromethyl)-4-fluoro-phenyl]triazol-4-yl]methyl]-1-methyl-pyrazol-4-amine], the IC50 came to 5.05 µM.

On to `Cn1ccc(NCc2cn(-c3ccc(F)c(C(F)F)c3)nn2)n1` [Example 100, N-[[1-[3-(Difluoromethyl)-4-fluoro-phenyl]triazol-4-yl]methyl]-1-methyl-pyrazol-3-amine], for which the IC50 came out at 0.894 µM.

As for `Cn1ccc(NCc2cn(-c3ccc(F)c(OC(F)F)c3)nn2)n1` [Example 101, N-[[1-[3-(Difluoromethoxy)-4-fluoro-phenyl]triazol-4-yl]methyl]-1-methyl-pyrazol-3-amine], the IC50 worked out at 0.374 µM.

Turning to `Cn1cc(NCc2cn(-c3ccc(F)c(OC(F)F)c3)nn2)cn1` [Example 102, N-[[1-[3-(Difluoromethoxy)-4-fluoro-phenyl]triazol-4-yl]methyl]-1-methyl-pyrazol-4-amine], the IC50 was 3.25 µM.

Turning to `COc1ncccc1OCc1cn(-c2ccc(Cl)c(OC(F)F)c2)nn1` [Example 103, 3-[[1-[4-Chloro-3-(difluoromethoxy)phenyl]triazol-4-yl]methoxy]-2-methoxy-pyridine], the IC50 turned out to be 0.064 µM.

The term IC50 denotes the midpoint of a concentration-inhibition curve.
